Data taken from patent publication EP0314011A2, “Purine derivatives” (F. HOFFMANN-LA ROCHE AG, priority 1987, dated 1989).

Tested on: HTLV III
Test: Anti-HIV activity: p24 antigen capture assay in HTLV III-infected C8166 cells
Assay type: cell-based
Conditions: concentration giving 50% protection; C8166 cells (human CD4+ T-lymphoblast line) infected with 10-fold TCD50 of virus; 72 h incubation at 37°C; viral protein 24 antigen in supernatant
Method: Die Aktivität der Purinderivate der vorliegenden Erfindung gegen HIV kann wie folgt nachgewiesen werden.
In diesem Versuch verwendet man HTLV III, gezüchtet in C8166-Zellen (eine menschliche CD4⁺ T-Lymphoblastenlinie), RPM1 1640 Medium mit Bicarbonatpuffer, Antibiotika und l0%igem fötalem Rinderserum. Eine Zellensuspension wird mit der 10-fachen TCD₅₀ des Virus infiziert. Man lässt 90 Minuten bei 37°C adsorbieren. Die Zellen werden mit dem Medium gewaschen. Der Versuch wird in 6 ml Gewebekulturröhrchen durchgeführt. Jedes Röhrchen enthält 2 x 10⁵ infizierte Zellen in 1,5 ml Medium. Es werden 15 µl einer Lösung der Substanz in wässrigem Medium oder in DMSO zugesetzt. Nach 72 Stunden Inkubation bei 37°C in einer feuchten 5% CO₂ enthaltenden Atmosphäre werden die Kulturen zentrifugiert. Ein aliquoter Teil des Ueberstandes wird solubilisiert und einem Antigenabfangversuch unterworfen unter Verwendung eines primären Antiserums mit besonderer Reaktivität gegen virales Protein 24 und eines Meerrettich-Peroxidase-Detektionssystems. Die Farbenerzeugung wird spektrophotometrisch gemessen und in Abhängigkeit der Konzentration der Testsubstanz dargestellt. Die einen 50%igen Schutz erzeugende Konzentration (IC₅₀) wird ermittelt. Die Resultate sind in der folgenden Tabelle angegeben: […]

| SMILES | IC50 [nM] |
| --- | --- |
| Nc1nc(Cl)nc2c1ncn2[C@@H]1O[C@H](CO)C[C@@H]1F [Beispiel 1, 6-Amino-2-chlor-9-(2,3-dideoxy-2-fluor-β-D-threopentofuranosyl)-9H-purin] | 1000 |
| [N-]=[N+]=Nc1nc(N)c2ncn([C@@H]3O[C@H](CO)C[C@@H]3F)c2n1 [Beispiel 2, 6-Amino-2-azido-9-(2,3-dideoxy-2-fluor-β-D-threopentofuranosyl)-9H-purin] | 10000 |
| Nc1nc(N)c2ncn([C@@H]3O[C@H](CO)C[C@@H]3F)c2n1 [Beispiel 3, 2,6-Diamino-9-(2,3-dideoxy-2-fluor-β-D-threopentofuranosyl)-9H-purin] | 1000 |
